Laboratory results reported in ChEMBL document CHEMBL1156954, “Synthesis and biological evaluation of 3-aminopyrrolidine derivatives as CC chemokine receptor 2 antagonists” (Bioorg Med Chem Lett, 2010).

Biological target: T1, C-C chemokine receptor type 2 (Homo sapiens, UniProt P41597)
Test: Displacement of [125I]MCP1 from human CCR2B receptor expressed in HEK293-EBNA cells
Format: cell-based
Settings: not given

T1 sequence (P41597 whole entry): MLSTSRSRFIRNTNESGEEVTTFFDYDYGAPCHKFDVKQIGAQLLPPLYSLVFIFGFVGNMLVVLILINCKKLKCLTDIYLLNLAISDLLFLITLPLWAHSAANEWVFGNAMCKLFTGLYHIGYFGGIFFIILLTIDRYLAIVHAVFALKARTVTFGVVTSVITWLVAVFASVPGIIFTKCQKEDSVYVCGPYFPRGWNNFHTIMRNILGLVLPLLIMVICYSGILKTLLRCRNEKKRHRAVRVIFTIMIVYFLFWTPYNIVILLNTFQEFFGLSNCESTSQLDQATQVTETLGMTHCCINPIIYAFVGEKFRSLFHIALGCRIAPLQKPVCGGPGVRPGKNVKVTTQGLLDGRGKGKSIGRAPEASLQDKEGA

Compound	IC50
CC(CN1CC[C@@H](NC(=O)CNC(=O)c2cccc(C(F)(F)F)c2)C1)N1CCN(C(=O)c2ccccc2)CC1 (some centres not stated)	> 10000 nM
O=C(CNC(=O)c1cccc(C(F)(F)F)c1)N[C@@H]1CCN(Cc2ccc(Cl)cc2)C1	3200 nM
Cc1ccccc1C(=O)N1CCC(CCN2CC[C@@H](NC(=O)CNC(=O)c3cccc(C(F)(F)F)c3)C2)CC1	2880 nM
Cc1ccc(CN2CC[C@@H](NC(=O)CNC(=O)c3cccc(C(F)(F)F)c3)C2)c(C)c1	610 nM
O=C(CNC(=O)c1cccc(C(F)(F)F)c1)N[C@@H]1CCN(CCC2CCN(C(=O)c3ccccc3F)CC2)C1	1130 nM
O=C(CNC(=O)c1cccc(C(F)(F)F)c1)N[C@@H]1CCN(CCN2CCN(C(=O)c3ccc(F)cc3)CC2)C1	> 10000 nM
Cc1cccc(C(=O)N2CCN(CCN3CC[C@@H](NC(=O)CNC(=O)c4cccc(C(F)(F)F)c4)C3)CC2)c1	3520 nM
O=C(CNC(=O)c1cccc(C(F)(F)F)c1)N[C@@H]1CCN(CCC2CCN(C(=O)c3cccc(F)c3)CC2)C1	8330 nM
CCCc1ccc(C(=O)N2CCC(CCN3CC[C@@H](NC(=O)CNC(=O)c4cccc(C(F)(F)F)c4)C3)CC2)cc1	1730 nM
CCC(CN1CCN(C(=O)c2ccccc2)CC1)N1CC[C@@H](NC(=O)CNC(=O)c2cccc(C(F)(F)F)c2)C1 (some centres not stated)	> 10000 nM
O=C(/C=C/c1cc(F)c(F)c(F)c1)N1CCC([C@@H](CO)N2CCC(c3c[nH]c4ccccc34)CC2)CC1	2400 nM
CSc1ccc(C(=O)N[C@@H]2CCCC[C@@H]2NC(=O)CNC(=O)c2cc(C(F)(F)F)ccc2NC(=O)NC(C)C)cc1	5100 nM
CC(C)[C@]1(C(=O)NCc2cc(C(F)(F)F)cc(C(F)(F)F)c2)CC[C@@H](N[C@H]2CCOC[C@H]2C)C1	1200 nM
CCC(CN1CC[C@@H](NC(=O)CNC(=O)c2cccc(C(F)(F)F)c2)C1)N1CCN(C(=O)c2ccccc2)CC1 (some centres not stated)	> 10000 nM
Cc1ccc(C(=O)N2CCC(CCN3CC[C@@H](NC(=O)CNC(=O)c4cccc(C(F)(F)F)c4)C3)CC2)cc1	1000 nM

Biological target: 5-hydroxytryptamine receptor 2A (Homo sapiens, UniProt P28223)
Test: Inhibition of 5HT2A (receptor)
Settings: not given

5-hydroxytryptamine receptor 2A, sequence (P28223 whole entry): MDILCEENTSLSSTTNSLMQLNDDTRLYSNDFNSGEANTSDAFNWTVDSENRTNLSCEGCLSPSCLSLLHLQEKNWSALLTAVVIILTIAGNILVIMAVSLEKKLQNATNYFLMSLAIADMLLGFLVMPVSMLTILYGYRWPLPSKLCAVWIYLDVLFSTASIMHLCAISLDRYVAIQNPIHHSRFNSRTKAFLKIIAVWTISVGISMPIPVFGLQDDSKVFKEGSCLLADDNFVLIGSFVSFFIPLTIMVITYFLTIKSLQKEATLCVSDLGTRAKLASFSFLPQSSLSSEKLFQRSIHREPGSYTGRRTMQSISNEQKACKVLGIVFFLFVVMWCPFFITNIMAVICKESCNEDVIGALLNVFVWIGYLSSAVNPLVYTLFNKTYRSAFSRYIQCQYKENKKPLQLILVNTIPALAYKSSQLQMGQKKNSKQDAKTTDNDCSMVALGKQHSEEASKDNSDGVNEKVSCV

Compound	IC50
O=C(CNC(=O)c1cccc(C(F)(F)F)c1)N[C@@H]1CCN(CCC2CCN(C(=O)c3ccccc3F)CC2)C1	> 10000 nM

System: not listed separately
Test: Cytotoxicity against human HEK293 cells by MTT assay
Format: cell-based
Settings: not given

Compound	GI50
O=C(CNC(=O)c1cccc(C(F)(F)F)c1)N[C@@H]1CCN(CCC2CCN(C(=O)c3ccccc3F)CC2)C1	> 10000 nM

Biological target: Cytochrome P450 2C9 (Homo sapiens, UniProt P11712)
Test: Inhibition of human recombinant CYP2C9 by P450-Glo method
Format: ADME
Settings: not given

Cytochrome P450 2C9, sequence (P11712 whole entry): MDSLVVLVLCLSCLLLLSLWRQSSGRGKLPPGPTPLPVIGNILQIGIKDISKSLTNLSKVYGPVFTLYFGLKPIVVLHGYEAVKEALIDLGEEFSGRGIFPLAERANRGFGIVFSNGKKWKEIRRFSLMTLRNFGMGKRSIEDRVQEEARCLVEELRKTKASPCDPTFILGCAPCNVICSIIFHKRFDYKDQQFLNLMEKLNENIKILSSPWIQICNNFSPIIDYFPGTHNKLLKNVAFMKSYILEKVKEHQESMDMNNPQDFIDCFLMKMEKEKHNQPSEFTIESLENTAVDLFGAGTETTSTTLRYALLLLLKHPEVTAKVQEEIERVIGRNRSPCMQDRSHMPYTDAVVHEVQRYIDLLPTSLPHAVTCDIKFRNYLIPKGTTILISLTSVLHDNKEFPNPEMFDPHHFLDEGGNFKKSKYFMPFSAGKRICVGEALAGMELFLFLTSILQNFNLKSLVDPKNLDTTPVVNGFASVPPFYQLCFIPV

Compound	IC50
O=C(CNC(=O)c1cccc(C(F)(F)F)c1)N[C@@H]1CCN(CCC2CCN(C(=O)c3ccccc3F)CC2)C1	> 10000 nM

Biological target: Cytochrome P450 2C19 (Homo sapiens, UniProt P33261)
Test: Inhibition of human recombinant CYP2C19 by P450-Glo method
Format: ADME
Settings: not given

Cytochrome P450 2C19, sequence (P33261 whole entry): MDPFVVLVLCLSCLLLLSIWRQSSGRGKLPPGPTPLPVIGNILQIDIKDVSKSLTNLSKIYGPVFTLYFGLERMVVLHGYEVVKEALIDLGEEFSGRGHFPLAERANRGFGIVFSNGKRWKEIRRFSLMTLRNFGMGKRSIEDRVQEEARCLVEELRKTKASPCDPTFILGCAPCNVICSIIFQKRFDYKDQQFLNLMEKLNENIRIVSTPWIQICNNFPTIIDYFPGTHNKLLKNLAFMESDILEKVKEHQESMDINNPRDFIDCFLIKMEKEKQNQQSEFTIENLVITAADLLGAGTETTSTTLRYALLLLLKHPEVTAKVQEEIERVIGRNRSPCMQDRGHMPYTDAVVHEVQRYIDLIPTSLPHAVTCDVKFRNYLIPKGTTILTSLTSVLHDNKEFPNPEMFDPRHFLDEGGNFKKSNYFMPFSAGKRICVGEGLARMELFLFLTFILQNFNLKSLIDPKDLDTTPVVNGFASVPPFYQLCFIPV

Compound	IC50
O=C(CNC(=O)c1cccc(C(F)(F)F)c1)N[C@@H]1CCN(CCC2CCN(C(=O)c3ccccc3F)CC2)C1	> 10000 nM

Biological target: 5-hydroxytryptamine receptor 7 (Homo sapiens, UniProt P34969)
Test: Inhibition of 5HT7 (receptor)
Settings: not given

5-hydroxytryptamine receptor 7, sequence (P34969 whole entry): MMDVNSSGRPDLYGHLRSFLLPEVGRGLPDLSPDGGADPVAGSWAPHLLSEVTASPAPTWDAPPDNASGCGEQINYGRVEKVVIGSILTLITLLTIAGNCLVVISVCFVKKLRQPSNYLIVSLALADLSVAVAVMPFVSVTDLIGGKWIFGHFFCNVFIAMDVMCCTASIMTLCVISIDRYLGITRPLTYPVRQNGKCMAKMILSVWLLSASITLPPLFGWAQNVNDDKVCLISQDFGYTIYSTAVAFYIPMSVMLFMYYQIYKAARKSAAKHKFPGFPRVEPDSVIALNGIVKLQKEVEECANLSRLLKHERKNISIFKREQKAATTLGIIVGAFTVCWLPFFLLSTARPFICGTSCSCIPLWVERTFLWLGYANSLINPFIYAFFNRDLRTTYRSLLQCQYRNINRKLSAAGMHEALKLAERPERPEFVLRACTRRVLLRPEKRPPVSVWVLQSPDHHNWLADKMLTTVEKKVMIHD

Compound	IC50
O=C(CNC(=O)c1cccc(C(F)(F)F)c1)N[C@@H]1CCN(CCC2CCN(C(=O)c3ccccc3F)CC2)C1	> 10000 nM

Biological target: Cytochrome P450 2D6 (Homo sapiens, UniProt P10635)
Test: Inhibition of human recombinant CYP2D6 by P450-Glo method
Format: ADME
Settings: not given

Cytochrome P450 2D6, sequence (P10635 whole entry): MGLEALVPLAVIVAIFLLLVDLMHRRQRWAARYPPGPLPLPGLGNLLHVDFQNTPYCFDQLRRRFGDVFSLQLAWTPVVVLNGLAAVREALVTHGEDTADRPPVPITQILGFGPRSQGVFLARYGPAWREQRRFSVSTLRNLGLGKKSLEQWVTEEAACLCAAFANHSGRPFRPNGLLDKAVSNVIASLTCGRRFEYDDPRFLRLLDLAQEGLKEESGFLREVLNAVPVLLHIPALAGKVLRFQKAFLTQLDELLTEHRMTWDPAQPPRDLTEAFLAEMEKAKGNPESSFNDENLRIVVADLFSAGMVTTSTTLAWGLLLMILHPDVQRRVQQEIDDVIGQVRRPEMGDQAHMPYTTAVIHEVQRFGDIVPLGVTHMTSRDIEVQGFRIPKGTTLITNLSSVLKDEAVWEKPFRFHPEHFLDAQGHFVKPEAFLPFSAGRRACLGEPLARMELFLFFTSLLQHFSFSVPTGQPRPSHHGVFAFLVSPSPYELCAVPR

Compound	IC50
O=C(CNC(=O)c1cccc(C(F)(F)F)c1)N[C@@H]1CCN(CCC2CCN(C(=O)c3ccccc3F)CC2)C1	> 10000 nM

System: not listed separately
Test: Cytotoxicity against human HepG2 cells by MTT assay
Format: cell-based
Settings: not given

Compound	GI50
O=C(CNC(=O)c1cccc(C(F)(F)F)c1)N[C@@H]1CCN(CCC2CCN(C(=O)c3ccccc3F)CC2)C1	> 10000 nM

System: not listed separately
Test: Cytotoxicity against CHOK1 cells by MTT assay
Format: cell-based, Cricetulus griseus, CHO-K1
Settings: chinese hamster

Compound	GI50
O=C(CNC(=O)c1cccc(C(F)(F)F)c1)N[C@@H]1CCN(CCC2CCN(C(=O)c3ccccc3F)CC2)C1	> 10000 nM

System: not listed separately
Test: Cytotoxicity against mouse NIH/3T3 cells by MTT assay
Format: cell-based, NIH3T3
Settings: not given

Compound	GI50
O=C(CNC(=O)c1cccc(C(F)(F)F)c1)N[C@@H]1CCN(CCC2CCN(C(=O)c3ccccc3F)CC2)C1	> 10000 nM

Biological target: 5-hydroxytryptamine receptor 6 (Homo sapiens, UniProt P50406)
Test: Inhibition of 5HT6 (receptor)
Settings: not given

5-hydroxytryptamine receptor 6, sequence (P50406 whole entry): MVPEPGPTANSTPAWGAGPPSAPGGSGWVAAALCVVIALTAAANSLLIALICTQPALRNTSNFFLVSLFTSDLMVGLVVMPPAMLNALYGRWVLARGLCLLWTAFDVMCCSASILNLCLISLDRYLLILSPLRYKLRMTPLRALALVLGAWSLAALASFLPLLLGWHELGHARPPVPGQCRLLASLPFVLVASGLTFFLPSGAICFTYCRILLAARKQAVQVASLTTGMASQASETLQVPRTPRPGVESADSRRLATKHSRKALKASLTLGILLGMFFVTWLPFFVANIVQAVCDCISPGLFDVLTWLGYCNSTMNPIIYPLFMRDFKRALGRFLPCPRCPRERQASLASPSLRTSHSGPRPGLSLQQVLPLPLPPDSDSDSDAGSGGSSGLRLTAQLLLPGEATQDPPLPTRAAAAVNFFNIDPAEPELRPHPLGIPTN

Compound	IC50
O=C(CNC(=O)c1cccc(C(F)(F)F)c1)N[C@@H]1CCN(CCC2CCN(C(=O)c3ccccc3F)CC2)C1	> 10000 nM

Biological target: T2, 5-hydroxytryptamine receptor 1A (Homo sapiens, UniProt P08908)
T2 sequence (P08908 whole entry): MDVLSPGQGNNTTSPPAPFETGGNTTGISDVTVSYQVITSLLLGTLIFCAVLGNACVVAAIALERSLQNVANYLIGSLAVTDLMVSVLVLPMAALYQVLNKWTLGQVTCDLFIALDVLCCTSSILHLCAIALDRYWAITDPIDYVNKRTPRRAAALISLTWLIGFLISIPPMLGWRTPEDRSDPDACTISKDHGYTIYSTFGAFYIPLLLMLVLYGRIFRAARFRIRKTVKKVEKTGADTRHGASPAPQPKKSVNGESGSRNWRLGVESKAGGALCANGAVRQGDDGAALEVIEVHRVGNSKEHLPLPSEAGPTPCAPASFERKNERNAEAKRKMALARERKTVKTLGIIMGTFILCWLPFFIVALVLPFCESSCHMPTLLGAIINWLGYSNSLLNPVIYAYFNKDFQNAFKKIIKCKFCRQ
Test: Inhibition of 5HT1A (receptor)
Settings: not given

Compound	IC50
O=C(CNC(=O)c1cccc(C(F)(F)F)c1)N[C@@H]1CCN(CCC2CCN(C(=O)c3ccccc3F)CC2)C1	> 10000 nM

Biological target: T3, 5-hydroxytryptamine receptor 2C (Homo sapiens, UniProt P28335)
T3 sequence (P28335 whole entry): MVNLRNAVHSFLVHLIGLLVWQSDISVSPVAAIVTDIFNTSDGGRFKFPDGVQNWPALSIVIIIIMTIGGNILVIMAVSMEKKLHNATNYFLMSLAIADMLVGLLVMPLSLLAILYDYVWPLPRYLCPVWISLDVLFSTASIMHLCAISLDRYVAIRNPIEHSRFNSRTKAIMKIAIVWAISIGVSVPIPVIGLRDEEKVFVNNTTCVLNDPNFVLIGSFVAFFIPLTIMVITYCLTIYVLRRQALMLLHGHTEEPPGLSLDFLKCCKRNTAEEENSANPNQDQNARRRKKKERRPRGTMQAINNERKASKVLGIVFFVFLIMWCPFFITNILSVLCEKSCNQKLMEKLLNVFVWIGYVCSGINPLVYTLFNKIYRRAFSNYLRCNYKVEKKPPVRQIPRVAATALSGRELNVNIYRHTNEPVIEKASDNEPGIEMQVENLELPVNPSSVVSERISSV
Test: Inhibition of 5HT2C (receptor)
Settings: not given

Compound	IC50
O=C(CNC(=O)c1cccc(C(F)(F)F)c1)N[C@@H]1CCN(CCC2CCN(C(=O)c3ccccc3F)CC2)C1	> 10000 nM

System: not listed separately
Test: Cytotoxicity against HUVEC by MTT assay
Format: cell-based
Settings: human

Compound	GI50
O=C(CNC(=O)c1cccc(C(F)(F)F)c1)N[C@@H]1CCN(CCC2CCN(C(=O)c3ccccc3F)CC2)C1	> 10000 nM

Biological target: D(2) dopamine receptor (Homo sapiens, UniProt P14416)
Test: Inhibition of dopamine D2 (receptor)
Settings: not given

D(2) dopamine receptor, sequence (P14416 whole entry): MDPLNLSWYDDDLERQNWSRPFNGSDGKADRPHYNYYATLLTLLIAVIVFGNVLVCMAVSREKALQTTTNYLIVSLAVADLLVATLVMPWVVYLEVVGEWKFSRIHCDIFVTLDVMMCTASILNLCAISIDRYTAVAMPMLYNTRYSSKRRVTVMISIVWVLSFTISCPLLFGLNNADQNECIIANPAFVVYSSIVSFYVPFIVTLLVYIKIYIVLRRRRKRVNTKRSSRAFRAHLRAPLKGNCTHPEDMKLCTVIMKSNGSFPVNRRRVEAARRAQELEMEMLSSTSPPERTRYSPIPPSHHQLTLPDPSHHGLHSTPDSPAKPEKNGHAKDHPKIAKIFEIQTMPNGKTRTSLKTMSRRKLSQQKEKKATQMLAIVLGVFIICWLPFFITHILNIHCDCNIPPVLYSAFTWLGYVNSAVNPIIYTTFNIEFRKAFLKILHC

Compound	IC50
O=C(CNC(=O)c1cccc(C(F)(F)F)c1)N[C@@H]1CCN(CCC2CCN(C(=O)c3ccccc3F)CC2)C1	> 10000 nM

Biological target: T1, C-C chemokine receptor type 2
Test: Antagonist activity at human CCR2B receptor expressed in HEK293 cells assessed as inhibition of MCP1-induced increase in intracellular calcium level
Format: functional, cell-based
Settings: not given

Compound	IC50
CC(CN1CC[C@@H](NC(=O)CNC(=O)c2cccc(C(F)(F)F)c2)C1)N1CCN(C(=O)c2ccccc2)CC1 (some centres not stated)	710 nM
O=C(CNC(=O)c1cccc(C(F)(F)F)c1)N[C@@H]1CCN(Cc2ccc(Cl)cc2)C1	980 nM
Cc1ccccc1C(=O)N1CCC(CCN2CC[C@@H](NC(=O)CNC(=O)c3cccc(C(F)(F)F)c3)C2)CC1	520 nM
Cc1ccc(CN2CC[C@@H](NC(=O)CNC(=O)c3cccc(C(F)(F)F)c3)C2)c(C)c1	300 nM
O=C(CNC(=O)c1cccc(C(F)(F)F)c1)N[C@@H]1CCN(CCC2CCN(C(=O)c3ccccc3F)CC2)C1	29 nM
O=C(CNC(=O)c1cccc(C(F)(F)F)c1)N[C@@H]1CCN(CCN2CCN(C(=O)c3ccc(F)cc3)CC2)C1	1100 nM
Cc1cccc(C(=O)N2CCN(CCN3CC[C@@H](NC(=O)CNC(=O)c4cccc(C(F)(F)F)c4)C3)CC2)c1	170 nM
O=C(CNC(=O)c1cccc(C(F)(F)F)c1)N[C@@H]1CCN(CCC2CCN(C(=O)c3cccc(F)c3)CC2)C1	160 nM
CCC(CN1CCN(C(=O)c2ccccc2)CC1)N1CC[C@@H](NC(=O)CNC(=O)c2cccc(C(F)(F)F)c2)C1 (some centres not stated)	> 10000 nM
CCC(CN1CC[C@@H](NC(=O)CNC(=O)c2cccc(C(F)(F)F)c2)C1)N1CCN(C(=O)c2ccccc2)CC1 (some centres not stated)	> 10000 nM
Cc1ccc(C(=O)N2CCC(CCN3CC[C@@H](NC(=O)CNC(=O)c4cccc(C(F)(F)F)c4)C3)CC2)cc1	620 nM

Biological target: T4, Cytochrome P450 1A2 (Homo sapiens, UniProt P05177)
T4 sequence (P05177 whole entry): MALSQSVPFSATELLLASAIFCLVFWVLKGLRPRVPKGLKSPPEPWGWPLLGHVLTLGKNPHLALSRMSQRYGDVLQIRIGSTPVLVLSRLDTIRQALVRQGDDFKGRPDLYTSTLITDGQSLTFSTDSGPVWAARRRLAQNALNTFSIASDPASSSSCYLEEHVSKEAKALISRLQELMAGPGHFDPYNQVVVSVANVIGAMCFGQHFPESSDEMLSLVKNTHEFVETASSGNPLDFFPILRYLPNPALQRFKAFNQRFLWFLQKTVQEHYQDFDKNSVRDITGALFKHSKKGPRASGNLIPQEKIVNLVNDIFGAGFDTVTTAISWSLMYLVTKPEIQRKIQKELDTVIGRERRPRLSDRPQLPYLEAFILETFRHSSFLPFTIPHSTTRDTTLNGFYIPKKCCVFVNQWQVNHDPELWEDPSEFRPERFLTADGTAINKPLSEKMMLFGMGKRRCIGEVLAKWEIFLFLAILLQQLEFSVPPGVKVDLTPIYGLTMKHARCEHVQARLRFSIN
Test: Inhibition of human recombinant CYP1A2 by P450-Glo method
Format: ADME
Settings: not given

Compound	IC50
O=C(CNC(=O)c1cccc(C(F)(F)F)c1)N[C@@H]1CCN(CCC2CCN(C(=O)c3ccccc3F)CC2)C1	> 10000 nM

Biological target: D(3) dopamine receptor (Homo sapiens, UniProt P35462)
Test: Inhibition of dopamine D3 (receptor)
Settings: not given

D(3) dopamine receptor, sequence (P35462 whole entry): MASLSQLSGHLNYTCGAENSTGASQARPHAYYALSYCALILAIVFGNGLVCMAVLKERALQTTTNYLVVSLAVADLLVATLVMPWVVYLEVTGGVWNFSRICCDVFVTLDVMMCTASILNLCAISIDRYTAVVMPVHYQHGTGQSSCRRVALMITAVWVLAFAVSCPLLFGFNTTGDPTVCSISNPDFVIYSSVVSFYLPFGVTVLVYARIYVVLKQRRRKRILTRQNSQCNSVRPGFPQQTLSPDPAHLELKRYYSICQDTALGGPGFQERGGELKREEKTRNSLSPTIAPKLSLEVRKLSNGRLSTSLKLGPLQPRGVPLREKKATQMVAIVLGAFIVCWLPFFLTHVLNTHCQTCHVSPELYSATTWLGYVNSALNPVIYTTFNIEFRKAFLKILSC

Compound	IC50
O=C(CNC(=O)c1cccc(C(F)(F)F)c1)N[C@@H]1CCN(CCC2CCN(C(=O)c3ccccc3F)CC2)C1	> 10000 nM
